What was measured:
Format in all cases: functional
Proteus mirabilis [1] = experiment: Antimicrobial activity against ESBL producing Proteus mirabilis assessed as resistant isolate by broth microdilution method
Escherichia coli [2] = experiment: Antimicrobial activity against ESBL producing Escherichia coli assessed as resistant isolate by broth microdilution method
Enterobacter cloacae [3] = experiment: Antimicrobial activity against Enterobacter cloacae with derepressed AmpC beta-lactamsae assessed as resistant isolate by broth microdilution method
Citrobacter [4] = experiment: Antimicrobial activity against Citrobacter assessed as resistant isolate by broth microdilution method
Pseudomonas aeruginosa [5] = experiment: Antimicrobial activity against ceftazidime non-susceptible Pseudomonas aeruginosa assessed as susceptible isolate by broth microdilution method in presence of Tazobactam
Acinetobacter [6] = experiment: Antimicrobial activity against imipenem non-susceptible Acinetobacter assessed as susceptible isolate by broth microdilution method in presence of Tazobactam
Enterobacteriaceae [7] = experiment: Antimicrobial activity against ceftazidime-susceptible Enterobacteriaceae assessed as intermediate isolate by broth microdilution method in presence of Tazobactam
Escherichia coli [8] = experiment: Antimicrobial activity against ESBL producing Escherichia coli assessed as susceptible isolate by broth microdilution method in presence of Tazobactam
Enterobacter cloacae [9] = experiment: Antimicrobial activity against Enterobacter cloacae with nonderepressed AmpC beta-lactamsae assessed as resistant isolate by broth microdilution method in presence of Tazobactam
Pseudomonas aeruginosa [10] = experiment: Antimicrobial activity against Pseudomonas aeruginosa isolated from ICU patient assessed as resistant isolate by broth microdilution method
Proteus mirabilis [11] = experiment: Antimicrobial activity against Non-ESBL Proteus mirabilis assessed as intermediate isolate by broth microdilution method in presence of Tazobactam
Klebsiella pneumoniae [12] = experiment: Antimicrobial activity against Non-ESBL Klebsiella pneumoniae assessed as intermediate isolate by broth microdilution method in presence of Tazobactam
Citrobacter [13] = experiment: Antimicrobial activity against Citrobacter with nonderepressed AmpC beta-lactamsae assessed as resistant isolate by broth microdilution method in presence of Tazobactam
Pseudomonas aeruginosa [14] = experiment: Antimicrobial activity against Pseudomonas aeruginosa isolated from non-ICU patient assessed as resistant isolate by broth microdilution method in presence of Tazobactam
Klebsiella pneumoniae [15] = experiment: Antimicrobial activity against ESBL producing Klebsiella pneumoniae assessed as resistant isolate by broth microdilution method in presence of Tazobactam
Proteus mirabilis [16] = experiment: Antimicrobial activity against ESBL producing Proteus mirabilis assessed as susceptible isolate by broth microdilution method in presence of Tazobactam
Serratia marcescens = experiment: Antimicrobial activity against Ceftazidime non-susceptible Serratia marcescens assessed as intermediate isolate by broth microdilution method in presence of tazobactam
Acinetobacter [17] = experiment: Antimicrobial activity against imipenem susceptible Acinetobacter assessed as susceptible isolate by broth microdilution method in presence of Tazobactam
Proteus mirabilis [18] = experiment: Antimicrobial activity against ESBL producing Proteus mirabilis assessed as intermediate isolate by broth microdilution method in presence of Tazobactam
Escherichia coli [19] = experiment: Antimicrobial activity against Non-ESBL Escherichia coli assessed as susceptible isolate by broth microdilution method in presence of Tazobactam
Pseudomonas aeruginosa [20] = experiment: Antimicrobial activity against imipenem susceptible Pseudomonas aeruginosa assessed as susceptible isolate by broth microdilution method in presence of Tazobactam
Pseudomonas aeruginosa [21] = experiment: Antimicrobial activity against imipenem non-susceptible Pseudomonas aeruginosa assessed as intermediate isolate by broth microdilution method in presence of Tazobactam
Pseudomonas aeruginosa [22] = experiment: Antimicrobial activity against ceftazidime susceptible Pseudomonas aeruginosa by broth microdilution method in presence of Tazobactam
Citrobacter [23] = experiment: Antimicrobial activity against Citrobacter with nonderepressed AmpC beta-lactamsae assessed as intermediate isolate by broth microdilution method in presence of Tazobactam
Pseudomonas aeruginosa [24] = experiment: Antimicrobial activity against imipenem non-susceptible Pseudomonas aeruginosa by broth microdilution method in presence of Tazobactam
Enterobacter cloacae [25] = experiment: Antimicrobial activity against Enterobacter cloacae with nonderepressed AmpC beta-lactamsae assessed as intermediate isolate by broth microdilution method in presence of Tazobactam
Acinetobacter [26] = experiment: Antimicrobial activity against imipenem susceptible Acinetobacter assessed as resistant isolate by broth microdilution method in presence of Tazobactam
Enterobacter cloacae [27] = experiment: Antimicrobial activity against Enterobacter cloacae with derepressed AmpC beta-lactamsae assessed as intermediate isolate by broth microdilution method in presence of Tazobactam
Pseudomonas aeruginosa [28] = experiment: Antimicrobial activity against ceftazidime susceptible Pseudomonas aeruginosa assessed as resistant isolate by broth microdilution method in presence of Tazobactam
Klebsiella pneumoniae [29] = experiment: Antimicrobial activity against ESBL producing Klebsiella pneumoniae assessed as intermediate isolate by broth microdilution method in presence of Tazobactam
Pseudomonas aeruginosa [30] = experiment: Antimicrobial activity against imipenem susceptible Pseudomonas aeruginosa assessed as resistant isolate by broth microdilution method in presence of Tazobactam
Enterobacteriaceae [31] = experiment: Antimicrobial activity against ceftazidime-susceptible Enterobacteriaceae assessed as susceptible isolate by broth microdilution method in presence of Tazobactam
Pseudomonas aeruginosa [32] = experiment: Antimicrobial activity against Pseudomonas aeruginosa isolated from ICU patient assessed as susceptible isolate by broth microdilution method in presence of Tazobactam
Proteus mirabilis [33] = experiment: Antimicrobial activity against ESBL producing Proteus mirabilis by broth microdilution method in presence of Tazobactam
Escherichia coli [34] = experiment: Antimicrobial activity against Non-ESBL Escherichia coli assessed as intermediate isolate by broth microdilution method in presence of Tazobactam
Citrobacter [35] = experiment: Antimicrobial activity against Citrobacter with nonderepressed AmpC beta-lactamsae assessed as susceptible isolate by broth microdilution method in presence of Tazobactam
Pseudomonas aeruginosa [36] = experiment: Antimicrobial activity against Ceftazidime susceptible Pseudomonas aeruginosa assessed as intermediate isolate by broth microdilution method in presence of tazobactam
Proteus mirabilis [37] = experiment: Antimicrobial activity against Non-ESBL Proteus mirabilis assessed as susceptible isolate by broth microdilution method in presence of Tazobactam
Klebsiella pneumoniae [38] = experiment: Antimicrobial activity against Non-ESBL Klebsiella pneumoniae assessed as susceptible isolate by broth microdilution method in presence of Tazobactam
Klebsiella pneumoniae [39] = experiment: Antimicrobial activity against ESBL producing Klebsiella pneumoniae by broth microdilution method in presence of Tazobactam
Enterobacteriaceae [40] = experiment: Antimicrobial activity against ceftazidime-susceptible Enterobacteriaceae assessed as resistant isolate by broth microdilution method in presence of Tazobactam
Citrobacter [41] = experiment: Antimicrobial activity against Citrobacter with derepressed AmpC beta-lactamsae assessed as susceptible isolate by broth microdilution method in presence of Tazobactam
Klebsiella pneumoniae [42] = experiment: Antimicrobial activity against Non-ESBL Klebsiella pneumoniae by broth microdilution method in presence of Tazobactam
Enterobacter cloacae [43] = experiment: Antimicrobial activity against Enterobacter cloacae with nonderepressed AmpC beta-lactamsae by broth microdilution method in presence of Tazobactam
Enterobacteriaceae [44] = experiment: Antimicrobial activity against Ceftazidime non-susceptible Enterobacteriaceae assessed as resistant isolate by broth microdilution method in presence of tazobactam
Escherichia coli [45] = experiment: Antimicrobial activity against ESBL producing Escherichia coli assessed as resistant isolate by broth microdilution method in presence of Tazobactam
Pseudomonas aeruginosa [46] = experiment: Antimicrobial activity against Ceftazidime non-susceptible Pseudomonas aeruginosa assessed as intermediate isolate by broth microdilution method in presence of tazobactam

Work on `CC(C)(O/N=C(\C(=O)N[C@@H]1C(=O)N2C(C(=O)[O-])=C(C[n+]3ccccc3)CS[C@H]12)c1csc(N)n1)C(=O)O` [CEFTAZIDIME] yielded an Activity (Proteus mirabilis [1]) of 0%, an Activity (Escherichia coli [2]) of 56.7% and an Activity (Enterobacter cloacae [3]) of 97.1%.

In the case of `C[C@@H](O)[C@H]1C(=O)N2C(C(=O)O)=C(SCCNC=N)C[C@H]12` [IMIPENEM ANHYDROUS], the Activity (Citrobacter [4]) is reported as 0.2%.

Work on `CCN1CCN(C(=O)N[C@@H](C(=O)N[C@@H]2C(=O)N3[C@@H]2SC(C)(C)[C@@H]3C(=O)O)c2ccccc2)C(=O)C1=O` [PIPERACILLIN] yielded an Activity (Pseudomonas aeruginosa [5]) of 17.3%, an Activity (Acinetobacter [6]) of 0% and an Activity (Enterobacteriaceae [7]) of 2.3%. For the same compound, the Activity (Escherichia coli [8]) was 53.3%, the Activity (Enterobacter cloacae [9]) was 3.5% and the MIC50 (Pseudomonas aeruginosa [10]) was 16 µg/mL. It also gave an Activity (Proteus mirabilis [11]) of 0.3%, an Activity (Klebsiella pneumoniae [12]) of 2.4% and an Activity (Citrobacter [13]) of 2.6%. The Activity (Pseudomonas aeruginosa [14]) was 13%, the Activity (Klebsiella pneumoniae [15]) was 77.3% and the Activity (Proteus mirabilis [16]) was 100%. For the same compound, the Activity (Serratia marcescens) was 30%, the Activity (Acinetobacter [17]) was 52.1% and the Activity (Proteus mirabilis [18]) was 0%. It also gave an Activity (Escherichia coli [19]) of 93.6%, an Activity (Pseudomonas aeruginosa [20]) of 90.6% and an Activity (Pseudomonas aeruginosa [21]) of 0%. It also gave an MIC50 (Pseudomonas aeruginosa [22]) of 16 µg/mL, an MIC90 (Pseudomonas aeruginosa [22]) of 64 µg/mL and an Activity (Citrobacter [23]) of 3.7%. The MIC50 (Pseudomonas aeruginosa [24]) was 16 µg/mL, the MIC90 (Pseudomonas aeruginosa [24]) was greater than 128 µg/mL and the Activity (Enterobacter cloacae [25]) was 3.2%. The Activity (Acinetobacter [26]) was 29.8%, the Activity (Enterobacter cloacae [27]) was 11.7% and the Activity (Pseudomonas aeruginosa [28]) was 3.7%. The Activity (Klebsiella pneumoniae [29]) was 11.4%, the Activity (Pseudomonas aeruginosa [30]) was 9.4% and the Activity (Enterobacteriaceae [31]) was 95.8%. It also gave an Activity (Pseudomonas aeruginosa [32]) of 78.4%, an MIC (Proteus mirabilis [33]) of 0.5 µg/mL and an Activity (Escherichia coli [34]) of 3.2%. The Activity (Citrobacter [35]) was 93.7%, the Activity (Pseudomonas aeruginosa [36]) was 0% and the Activity (Proteus mirabilis [37]) was 99.4%. The Activity (Klebsiella pneumoniae [38]) was 95.9%, the MIC50 (Klebsiella pneumoniae [39]) was greater than 128 µg/mL and the MIC90 (Klebsiella pneumoniae [39]) was greater than 128 µg/mL. It also gave an Activity (Enterobacteriaceae [40]) of 1.9%, an Activity (Citrobacter [41]) of 3.6% and an MIC50 (Klebsiella pneumoniae [42]) of 4 µg/mL. The MIC90 (Klebsiella pneumoniae [42]) was 16 µg/mL, the MIC50 (Enterobacter cloacae [43]) was 4 µg/mL and the MIC90 (Enterobacter cloacae [43]) was 16 µg/mL. For the same compound, the Activity (Enterobacteriaceae [44]) was 63.8%, the Activity (Escherichia coli [45]) was 30% and the Activity (Pseudomonas aeruginosa [46]) was 0%.

From ChEMBL document CHEMBL1275550, “In vitro activity of doripenem, a carbapenem for the treatment of challenging infections caused by gram-negative bacteria, against recent clinical isolates from the United States” (2008)
